We go through 1 compound from patent US20030039672A1, “Cosmetic composition and method of treating skin” (Unilever Home & Personal Care USA, Division of Conopco, Inc., priority 2001, published 2003).

Format in all cases: cell-based
Experiment [1] relates to procollagen-I synthesis in human dermal fibroblasts. Kind of experiment: Dot blot assay for procollagen-I protein in dermal fibroblast conditioned medium. The settings on record: for Procollagen Level: 24 hours, relative to vehicle treated control value of 100. The method, then: (§1) Primary human foreskin fibroblasts at passage 2 (P2) were seeded into 12-well plates at 10000 cells/cm^2 and maintained for 24 hours in an atmosphere of 5% carbon dioxide and 4% oxygen in Dulbeccos Modified Eagles Medium (DMEM) supplemented with 10% foetal calf serum. After this time the cells were washed with serum free DMEM and then incubated in fresh serum free DMEM for a further 60 hours. The fibroblast monolayers were then washed again with serum free DMEM. Test reagents and vehicle controls were added to the cells in triplicate in a final volume of 0.4 ml/well fresh serum free DMEM and incubated for a further 24 hours. This fibroblast conditioned medium was either analysed immediately or snap frozen in liquid nitrogen and stored at −70° C. for future analysis. The cells were then counted and data from the dot-blot analysis subsequently standardised to cell number.
(§2) Samples of conditioned medium from dermal fibroblasts treated with vehicle (as a control) or test reagents were supplemented with 20 mM dithiothreitol (1:10 dilution of 200 mM stock solution) and 0.1% sodium dodecylsulphate (1:100 dilution of 10% stock solution), mixed well and then incubated at 75° C. for 2 minutes. A standard for the assay was generated by serial dilution of neat fibroblast conditioned medium from fibroblasts seeded at 10000 cells/cm^2 in a 175 cm^2 flask and maintained in serum free DMEM as described above. […]
(§3) Following this the Immobilon strips were again washed with TBS/Tween 20 (3×5 minutes) before being allowed to dry in air at room temperature. […] Dot intensity was assessed by computer-assisted image analysis using the quantification tools in ImageQuant™, standardised to cell number and the effects of various test reagents on decorin and procollagen-I synthesis were determined relative to a vehicle treated control value of 100 arbitrary units.
(§4) In order to normalise the results the effects of the test substance was determined relative to a vehicle treated control value of 100 arbitrary units.

For experiment [2], the system named is decorin synthesis in human dermal fibroblasts. As to the kind of experiment: Dot blot assay for decorin protein in dermal fibroblast conditioned medium. The settings on record: for Decorin Level: 24 hours, relative to vehicle treated control value of 100. The method, then: as §1, §2, §3, §4
Experiment [3] deals with Human foreskin keratinocytes. Kind of experiment: Cornified envelope production in keratinocytes (silver-stained dot blot). The settings on record: for Cornified Envelope % Control / Cornified Envelope Mean: 4 days of treatment. The method, then:
(§5) Human foreskin keratinocytes at passage 3 (P3) were seeded into 96 well plates at 4000 cells/well in Dubleccos Modified Eagles Medium (DMEM), 0.03 mM calcium. The cells were grown for 3 days prior to treatment. The treatment vehicle was DMSO. After 4 days of treatment, the cells were harvested and washed three times with 100 μl phosphate buffered saline (PBS). The cells were then extracted in 1% Triton X100, 50 mM Tris pH 8.0, 0.02 mM Leupeptin, 0.02 mM Pepstatin. 60 il/well of extract was then assayed for DNA concentration (ng/well), Pico Green DNA assay, Molecular Probes.
The cells were then washed in 200 μl PBS, and then 100 μl of 2% SDS, 20 mM DTT was added to each well. The plates were then sealed with a Titertek plate sealer (ICN) and incubated at 60° C. over night in an air tight damp environment (i.e. a sealed sandwich box lined with damp paper). The extract was then filtered through a PVDF transfer membrane (Bio-rad) under gravity using Dot-Blot apparatus (Bio-rad). The membrane is then washed in distilled water prior to silver staining (Bio-rad Silver Stain kit). The stained dot blot membrane is then analysed using Phoretix array software (Phoretix International).

Experiment [4] relates to Human foreskin keratinocytes. As to the kind of experiment: DNA concentration of keratinocyte extract (Pico Green DNA assay). The settings on record: 4 days of treatment. The method, then:
as §5

The mark [5] stands for this setting: human dermal fibroblasts, statement in words.

Turning to `CC/C=C\C/C=C\C/C=C\CCCCCC(=O)O` [Hexadecatrienoic acid, hexadecatrienoic acid (C16:3(c7, c10, c13))], the “Procollagen Level” value is 91.0 arbitrary units in experiment [1] (1 μM) and 184.2 arbitrary units in experiment [1] (10 μM). The “synthesis of procollagen-I as compared to the control” value in experiment [1] (setting [5]) is given as “significantly upregulates”. Further, the “Decorin Level” value in experiment [2] (1 μM) amounted to 108.7 arbitrary units; in experiment [2] (10 μM) it was 115.4 arbitrary units. In experiment [2] (setting [5]), the “synthesis of decorin as compared to the control” value was “significantly upregulates”. The “Cornified Envelope % Control” value in experiment [3] (0.1 μM) worked out at 98 % Control; in experiment [3] (0.5 μM), 133 % Control; in experiment [3] (1 μM), 200 % Control; in experiment [3] (10 μM), 227 % Control. In addition, the “Cornified Envelope Mean” value amounted to 17617 in experiment [3] (0.1 μM), 24009 in experiment [3] (0.5 μM), 36017 in experiment [3] (1 μM) and 40997 in experiment [3] (10 μM). For the same compound, the cornified envelope production result in experiment [3] (1-10 μM application, statement in words) is “increased”. For the same compound, the “DNA Results % Control” value was found to be 59 % Control in experiment [4] (0.1 μM), 89 % Control in experiment [4] (0.5 μM), 76 % Control in experiment [4] (1 μM) and 68 % Control in experiment [4] (10 μM). Also, the “DNA Results Mean” value in experiment [4] (0.1 μM) is 0.98 ng/well; in experiment [4] (0.5 μM), 1.48 ng/well; in experiment [4] (1 μM), 1.27 ng/well; in experiment [4] (10 μM), 1.13 ng/well.
